From the NIST ThermoML archive (doi:10.1016/j.tca.2016.09.014) come the findings set out here.

Series [1] can be described thus: Molar enthalpy of transition or fusion. The conditions noted are these: Crystal; DSC.
For series [2] the following is noted: Crystal; DTA.

± gives the expanded uncertainty stated by the source.

For `O=C(O)c1cc(-c2ccc(F)cc2F)ccc1O` [2',4'-difluoro-4-hydroxy-1,1'-biphenyl-3-carboxylic acid], in series [1], the “Molar enthalpy of transition or fusion” value was 9.22 ± 0.263 kcal/mol. Also, the Normal melting temperature in series [2] was found to be 211.78 ± 5 °C. Taken in the same sequence, the figures for `CCCCCCCCCCCCCCCCOC(=O)CCCCCCCCCCCCCCC` [cetyl palmitate] were 15.8 ± 0.43 kcal/mol and 41.27 ± 5 °C.

Take `CCCCCCCCCCCCCCCCCC(=O)O` [octadecanoic acid]: the “Molar enthalpy of transition or fusion” value in series [1] came to 12.1 ± 0.335 kcal/mol.
